Reference: US11986531B2, “Compounds and methods for the targeted degradation of rapidly accelerated fibrosarcoma polypeptides” (ARVINAS OPERATIONS, INC., priority 2016, dated 2024)

Tested on: BRAF mutants (Class 1, Class 2 and Class 3)
Assay: targeted degradation of BRAF mutants (summary of FIGS. 4-10)
Type: cell-based
Details: BRAF mutants sensitive (Class 1) and insensitive (Class 2 and Class 3) to vemurafenib

SMILES: CCCS(=O)(=O)Nc1ccc(F)c(C(=O)c2c[nH]c3ncc(-c4ccc(N5CCN(CC(=O)N[C@H](C(=O)N6C[C@H](O)C[C@H]6C(=O)NCc6ccc(-c7scnc7C)cc6)C(C)(C)C)CC5)cc4)cc23)c1F [compound 512, (2S,4R)-1-((S)-2-(2-(4-(4-(3-(2,6-difluoro-3-(propylsulfonamido)benzoyl)-1H-pyrrolo[2,3-b]pyridin-5-yl)phenyl)piperazin-1-yl)acetamido)-3,3-dimethylbutanoyl)-4-hydroxy-N-(4-(4-methylthiazol-5-yl)benzyl)pyrrolidine-2-carboxamide]
- targeted degradation of BRAF mutants: induces targeted degradation of BRAF mutants sensitive (Class 1) and insensitive (Class 2 and Class 3) to vemurafenib
